Read-outs that look alike come from different tables or passages of the source.

This experiment concerns RS4;11 cells. The experiment in a line: Cell viability assay (CellTiter-Glo) in RS4;11 cells. As to conditions: Homo sapiens, 72 h. It is filed as cell-based. In short, it runs like this: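 RS4;11 cells seeded at 5000 per well, exposed for 3 days to 8- or 12-point 3-fold serial dilutions. Viability read by CellTiter-Glo luminescence; IC50 fitted by nonlinear least-squares regression.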

Where [1] appears, read: RS4;11 cells, cell viability, 3 days, CellTiter-Glo, read-out: IC50.
The mark [2] stands for this setting: RS4;11 ALL cells treated for three days, read-out: cell viability inhibition IC50.

By IC50 is commonly meant the concentration needed to halve the response being measured. As for `O=C(CN1CCC(n2cc(-c3cnc4cccc(-c5cc(F)c(CN6CCOCC6)c(F)c5)c4n3)cn2)CC1)NCCOCCNc1ccc2c(c1)C(=O)N(C1CCC(=O)NC1=O)C2=O` (centres unmarked) [JA-169, 2-(4-(4-(8-(3,5-Difluoro-4-(morpholinomethyl)phenyl)quinoxalin-2-yl)-1H-pyrazol-1-yl)piperidin-1-yl)-N-(2-(2-((2-(2,6-dioxopiperidin-3-yl)-1,3-dioxoisoindolin-5-yl)amino)ethoxy)ethyl)acetamide], under setting [1], the IC50 turned out to be 2030 nM.
In the case of `O=C(CN1CCC(n2cc(-c3cnc4cccc(-c5cc(F)c(CN6CCOCC6)c(F)c5)c4n3)cn2)CC1)NCCOCCOCCNc1ccc2c(c1)C(=O)N(C1CCC(=O)NC1=O)C2=O` (centres unmarked) [JA-170, 2-(4-(4-(8-(3,5-Difluoro-4-(morpholinomethyl)phenyl)quinoxalin-2-yl)-1H-pyrazol-1-yl)piperidin-1-yl)-N-(2-(2-(2-((2-(2,6-dioxopiperidin-3-yl)-1,3-dioxoisoindolin-5-yl)amino)ethoxy)ethoxy)ethyl)acetamide], the IC50 under setting [1] is above 10000 nM.
Take `O=C(CN1CCC(n2cc(-c3cnc4cccc(-c5cc(F)c(CN6CCOCC6)c(F)c5)c4n3)cn2)CC1)NCCOCCOCCOCCNc1ccc2c(c1)C(=O)N(C1CCC(=O)NC1=O)C2=O` (centres unmarked) [JA-171, 2-(4-(4-(8-(3,5-Difluoro-4-(morpholinomethyl)phenyl)quinoxalin-2-yl)-1H-pyrazol-1-yl)piperidin-1-yl)-N-(2-(2-(2-(2-((2-(2,6-dioxopiperidin-3-yl)-1,3-dioxoisoindolin-5-yl)amino)ethoxy)ethoxy)ethoxy)ethyl)acetamide]: the concentration for half-maximal inhibition (IC50) under setting [1] is above 10000 nM.
As for `O=C(CN1CCC(n2cc(-c3cnc4cccc(-c5cc(F)c(CN6CCOCC6)c(F)c5)c4n3)cn2)CC1)NCCOCCOCCOCCOCCNc1ccc2c(c1)C(=O)N(C1CCC(=O)NC1=O)C2=O` (centres unmarked) [JA-172, 2-(4-(4-(8-(3,5-Difluoro-4-(morpholinomethyl)phenyl)quinoxalin-2-yl)-1H-pyrazol-1-yl)piperidin-1-yl)-N-(14-((2-(2,6-dioxopiperidin-3-yl)-1,3-dioxoisoindolin-5-yl)amino)-3,6,9,12-tetraoxatetradecyl)acetamide], under setting [1], the IC50 is above 10000 nM.
With `O=C(CN1CCC(n2cc(-c3cnc4cccc(-c5cc(F)c(CN6CCOCC6)c(F)c5)c4n3)cn2)CC1)NCCOCCOCCOCCOCCOCCNc1ccc2c(c1)C(=O)N(C1CCC(=O)NC1=O)C2=O` (centres unmarked) [JA-173, 2-(4-(4-(8-(3,5-Difluoro-4-(morpholinomethyl)phenyl)quinoxalin-2-yl)-1H-pyrazol-1-yl)piperidin-1-yl)-N-(17-((2-(2,6-dioxopiperidin-3-yl)-1,3-dioxoisoindolin-5-yl)amino)-3,6,9,12,15-pentaoxaheptadecyl)acetamide], under setting [1], the 50% inhibitory concentration (IC50) was above 10000 nM.
Same read-out and setting: the same measure for `O=C(CN1CCC(n2cc(-c3cnc4cccc(-c5cc(F)c(CN6CCOCC6)c(F)c5)c4n3)cn2)CC1)NCCNc1ccc2c(c1)C(=O)N(C1CCC(=O)NC1=O)C2=O` (centres unmarked) [JA-174, 2-(4-(4-(8-(3,5-Difluoro-4-(morpholinomethyl)phenyl)quinoxalin-2-yl)-1H-pyrazol-1-yl)piperidin-1-yl)-N-(2-((2-(2,6-dioxopiperidin-3-yl)-1,3-dioxoisoindolin-5-yl)amino)ethyl)acetamide]: 2450 nM; for `O=C(CN1CCC(n2cc(-c3cnc4cccc(-c5cc(F)c(CN6CCOCC6)c(F)c5)c4n3)cn2)CC1)NCCCNc1ccc2c(c1)C(=O)N(C1CCC(=O)NC1=O)C2=O` (centres unmarked) [JA-175, 2-(4-(4-(8-(3,5-Difluoro-4-(morpholinomethyl)phenyl)quinoxalin-2-yl)-1H-pyrazol-1-yl)piperidin-1-yl)-N-(3-((2-(2,6-dioxopiperidin-3-yl)-1,3-dioxoisoindolin-5-yl)amino)propyl)acetamide]: 128 nM; for `O=C(CN1CCC(n2cc(-c3cnc4cccc(-c5cc(F)c(CN6CCOCC6)c(F)c5)c4n3)cn2)CC1)NCCCCNc1ccc2c(c1)C(=O)N(C1CCC(=O)NC1=O)C2=O` (centres unmarked) [JA-176, 2-(4-(4-(8-(3,5-Difluoro-4-(morpholinomethyl)phenyl)quinoxalin-2-yl)-1H-pyrazol-1-yl)piperidin-1-yl)-N-(4-((2-(2,6-dioxopiperidin-3-yl)-1,3-dioxoisoindolin-5-yl)amino)butyl)acetamide]: 2790 nM.
Consider `O=C(CN1CCC(n2cc(-c3cnc4cccc(-c5cc(F)c(CN6CCOCC6)c(F)c5)c4n3)cn2)CC1)NCCCCCNc1ccc2c(c1)C(=O)N(C1CCC(=O)NC1=O)C2=O` (centres unmarked) [JA-177, 2-(4-(4-(8-(3,5-Difluoro-4-(morpholinomethyl)phenyl)quinoxalin-2-yl)-1H-pyrazol-1-yl)piperidin-1-yl)-N-(5-((2-(2,6-dioxopiperidin-3-yl)-1,3-dioxoisoindolin-5-yl)amino)pentyl)acetamide], for which the half-maximal inhibitory concentration (IC50) under setting [1] worked out at 890 nM.
Take `O=C(CN1CCC(n2cc(-c3cnc4cccc(-c5cc(F)c(CN6CCOCC6)c(F)c5)c4n3)cn2)CC1)NCCCCCCNc1ccc2c(c1)C(=O)N(C1CCC(=O)NC1=O)C2=O` (centres unmarked) [JA-178, 2-(4-(4-(8-(3,5-Difluoro-4-(morpholinomethyl)phenyl)quinoxalin-2-yl)-1H-pyrazol-1-yl)piperidin-1-yl)-N-(6-((2-(2,6-dioxopiperidin-3-yl)-1,3-dioxoisoindolin-5-yl)amino)hexyl)acetamide]: under setting [1], the concentration for half-maximal inhibition (IC50) was 1900 nM.
In the case of `O=C(CN1CCC(n2cc(-c3cnc4cccc(-c5cc(F)c(CN6CCOCC6)c(F)c5)c4n3)cn2)CC1)NCCCCCCCNc1ccc2c(c1)C(=O)N(C1CCC(=O)NC1=O)C2=O` (centres unmarked) [JA-179, 2-(4-(4-(8-(3,5-difluoro-4-(morpholinomethyl)phenyl)quinoxalin-2-yl)-1H-pyrazol-1-yl)piperidin-1-yl)-N-(7-((2-(2,6-dioxopiperidin-3-yl)-1,3-dioxoisoindolin-5-yl)amino)heptyl)acetamide], the IC50 is below 100 nM under setting [2] and 78.3 nM under setting [1].
In the same order, the values of `O=C(CN1CCC(n2cc(-c3cnc4cccc(-c5cc(F)c(CN6CCOCC6)c(F)c5)c4n3)cn2)CC1)NCCCCCCCCNc1ccc2c(c1)C(=O)N(C1CCC(=O)NC1=O)C2=O` (centres unmarked) [JA-180, 2-(4-(4-(8-(3,5-difluoro-4-(morpholinomethyl)phenyl)quinoxalin-2-yl)-1H-pyrazol-1-yl)piperidin-1-yl)-N-(8-((2-(2,6-dioxopiperidin-3-yl)-1,3-dioxoisoindolin-5-yl)amino)octyl)acetamide] are below 100 nM and 88.6 nM.
Regarding `O=C1CCC(N2C(=O)c3ccc(NCCOCCC(=O)N4CCC(n5cc(-c6cnc7cccc(-c8cc(F)c(CN9CCOCC9)c(F)c8)c7n6)cn5)CC4)cc3C2=O)C(=O)N1` (centres unmarked) [JA-181, 5-((2-(3-(4-(4-(8-(3,5-Difluoro-4-(morpholinomethyl)phenyl)quinoxalin-2-yl)-1H-pyrazol-1-yl)piperidin-1-yl)-3-oxopropoxy)ethyl)amino)-2-(2,6-dioxopiperidin-3-yl)isoindoline-1,3-dione], the IC50 under setting [1] turned out to be 1690 nM.
For `O=C1CCC(N2C(=O)c3ccc(NCCCCC(=O)N4CCC(n5cc(-c6cnc7cccc(-c8cc(F)c(CN9CCOCC9)c(F)c8)c7n6)cn5)CC4)cc3C2=O)C(=O)N1` (centres unmarked) [JA-182, 5-((5-(4-(4-(8-(3,5-difluoro-4-(morpholinomethyl)phenyl)quinoxalin-2-yl)-1H-pyrazol-1-yl)piperidin-1-yl)-5-oxopentyl)amino)-2-(2,6-dioxopiperidin-3-yl)isoindoline-1,3-dione], the concentration for half-maximal inhibition (IC50) is below 100 nM under setting [2] and 13.8 nM under setting [1].
`O=C1CCC(N2C(=O)c3ccc(NCCOCCOCCC(=O)N4CCC(n5cc(-c6cnc7cccc(-c8cc(F)c(CN9CCOCC9)c(F)c8)c7n6)cn5)CC4)cc3C2=O)C(=O)N1` (centres unmarked) [JA-183, 5-((2-(2-(3-(4-(4-(8-(3,5-Difluoro-4-(morpholinomethyl)phenyl)quinoxalin-2-yl)-1H-pyrazol-1-yl)piperidin-1-yl)-3-oxopropoxy)ethoxy)ethyl)amino)-2-(2,6-dioxopiperidin-3-yl)isoindoline-1,3-dione]: the IC50 under setting [1] was above 10000 nM.
Same read-out and setting: with `O=C1CCC(N2C(=O)c3ccc(NCCOCCOCCOCCC(=O)N4CCC(n5cc(-c6cnc7cccc(-c8cc(F)c(CN9CCOCC9)c(F)c8)c7n6)cn5)CC4)cc3C2=O)C(=O)N1` (centres unmarked) [JA-184, 5-((2-(2-(2-(3-(4-(4-(8-(3,5-Difluoro-4-(morpholinomethyl)phenyl)quinoxalin-2-yl)-1H-pyrazol-1-yl)piperidin-1-yl)-3-oxopropoxy)ethoxy)ethoxy)ethyl)amino)-2-(2,6-dioxopiperidin-3-yl)isoindoline-1,3-dione] the figure was 9990 nM; with `O=C1CCC(N2C(=O)c3ccc(NCCOCCOCCOCCOCCC(=O)N4CCC(n5cc(-c6cnc7cccc(-c8cc(F)c(CN9CCOCC9)c(F)c8)c7n6)cn5)CC4)cc3C2=O)C(=O)N1` (centres unmarked) [JA-185, 5-((15-(4-(4-(8-(3,5-Difluoro-4-(morpholinomethyl)phenyl)quinoxalin-2-yl)-1H-pyrazol-1-yl)piperidin-1-yl)-15-oxo-3,6,9,12-tetraoxapentadecyl)amino)-2-(2,6-dioxopiperidin-3-yl)isoindoline-1,3-dione], above 10000 nM; with `O=C1CCC(N2C(=O)c3ccc(NCCOCCOCCOCCOCCOCCC(=O)N4CCC(n5cc(-c6cnc7cccc(-c8cc(F)c(CN9CCOCC9)c(F)c8)c7n6)cn5)CC4)cc3C2=O)C(=O)N1` (centres unmarked) [JA-186, 5-((18-(4-(4-(8-(3,5-Difluoro-4-(morpholinomethyl)phenyl)quinoxalin-2-yl)-1H-pyrazol-1-yl)piperidin-1-yl)-18-oxo-3,6,9,12,15-pentaoxaoctadecyl)amino)-2-(2,6-dioxopiperidin-3-yl)isoindoline-1,3-dione], above 10000 nM.
As to `O=C1CCC(N2C(=O)c3ccc(NCCCCCCCC(=O)N4CCC(n5cc(-c6cnc7cccc(-c8cc(F)c(CN9CCOCC9)c(F)c8)c7n6)cn5)CC4)cc3C2=O)C(=O)N1` (centres unmarked) [JA-187, 5-((8-(4-(4-(8-(3,5-difluoro-4-(morpholinomethyl)phenyl)quinoxalin-2-yl)-1H-pyrazol-1-yl)piperidin-1-yl)-8-oxooctyl)amino)-2-(2,6-dioxopiperidin-3-yl)isoindoline-1,3-dione], the IC50 under setting [2] was below 100 nM and the IC50 under setting [1] turned out to be 54.4 nM.
